Measurements published in patent US10214492B2, “Heterocyclic inhibitors of MCT4” (Vettore, LLC, priority 2016, dated 2019).
Like-named read-outs stand apart in the source and are kept apart here.

Key:
[1] = Metabolic stability in human liver microsomes (in vitro t1/2); assay type: in vitro ADME; conditions: for half-life at 2 µM: human liver microsomes 0.5 mg/mL, 2 μM compound, read-out: Human microsome t1/2, min; for Human microsome % 60 min: human liver microsomes
Procedure: (§1) The following are assays that may be used to evaluate the metabolic stability of compounds of Formula (I) in human, rat, or mouse microsomes. The assays follow a common procedure recited below. 1. […] Two separated experiments were performed as follows. a) With NADPH: 10 μL of 20 mg/mL liver microsomes and 40 μL of 10 mM NADPH were added to the incubations. […] The final concentration of microsomes was 0.5 mg/mL. 3. The reaction was started with the addition of 4 μL of 200 μM control compound or test compound solutions. Verapamil was used as positive control in this study. The final concentration of test compound or control compound was 2 μM. 4. Aliquots of 50 μL were taken from the reaction solution at 0, 15, 30, 45 and 60 min. […] Samples were centrifuged at 3,220 g for 40 minutes. A 90 μL aliquot of the supernatant was mixed with 90 μL of ultra-pure H2O and then used for LC-MS/MS analysis. 5. Data analysis. All calculations were carried out using Microsoft Excel. Peak areas were determined from extracted ion chromatograms. The slope value, k, was determined by linear regression of the natural logarithm of the remaining percentage of the parent drug vs. incubation time curve. The in vitro half-life (in vitro t1/2) was determined from the slope value: in vitro t1/2=−(0.693)/k.

[2] = Metabolic stability in mouse liver microsomes (in vitro t1/2); assay type: in vitro ADME; conditions: for half-life at 2 µM: mouse liver microsomes 0.5 mg/mL, 2 μM compound, read-out: Mouse microsome t1/2, min; for Mouse microsome % 60 min: mouse liver microsomes
Procedure: as §1

[3] = molecular target: MCT4 (Homo sapiens (Human), UniProt O15427); assay: Assay 3: MCT4-mediated lactate transport in MDA-MB-231 breast cancer cells; assay type: cell-based
How it was run: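 Read-out is BCECF fluorescence tracking the intracellular pH shift from MCT4-mediated lactate/H+ co-transport. Before measurement, MDA-MB-231 cells take up BCECF-AM for 5 min at 37° C, then are washed into Tyrode's Solution, pH 7.4.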

[4] = molecular target: MCT1 (Homo sapiens (Human), UniProt P53985); assay: Assay 4: MCT1-mediated lactate transport in BT20 breast cancer cells; assay type: cell-based; conditions: Table 27
How it was run: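 Transport started with 10 mM L-lactate on BCECF-loaded BT20 cells in Tyrode's Solution, pH 7.4. Dye loading: BCECF-AM ester (30 mM DMSO stock), 5 min at 37° C, then one wash.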

[5] = MDA-MB-231 cells, lactate transport

Chain of MCT4 (O15427 whole entry, looked up): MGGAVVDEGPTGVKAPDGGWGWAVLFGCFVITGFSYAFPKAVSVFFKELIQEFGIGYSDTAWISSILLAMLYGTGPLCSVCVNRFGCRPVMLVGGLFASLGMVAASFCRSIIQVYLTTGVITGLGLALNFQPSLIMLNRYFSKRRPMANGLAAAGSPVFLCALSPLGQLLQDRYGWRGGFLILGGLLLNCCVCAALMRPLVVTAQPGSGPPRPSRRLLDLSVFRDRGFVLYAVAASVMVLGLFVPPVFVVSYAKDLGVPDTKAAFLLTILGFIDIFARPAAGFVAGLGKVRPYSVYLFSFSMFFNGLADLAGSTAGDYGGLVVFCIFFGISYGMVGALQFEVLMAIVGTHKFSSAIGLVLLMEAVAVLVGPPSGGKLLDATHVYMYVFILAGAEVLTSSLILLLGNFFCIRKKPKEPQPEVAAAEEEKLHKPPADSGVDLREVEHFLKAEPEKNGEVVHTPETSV
Chain of MCT4 (P35613 whole entry partner, looked up): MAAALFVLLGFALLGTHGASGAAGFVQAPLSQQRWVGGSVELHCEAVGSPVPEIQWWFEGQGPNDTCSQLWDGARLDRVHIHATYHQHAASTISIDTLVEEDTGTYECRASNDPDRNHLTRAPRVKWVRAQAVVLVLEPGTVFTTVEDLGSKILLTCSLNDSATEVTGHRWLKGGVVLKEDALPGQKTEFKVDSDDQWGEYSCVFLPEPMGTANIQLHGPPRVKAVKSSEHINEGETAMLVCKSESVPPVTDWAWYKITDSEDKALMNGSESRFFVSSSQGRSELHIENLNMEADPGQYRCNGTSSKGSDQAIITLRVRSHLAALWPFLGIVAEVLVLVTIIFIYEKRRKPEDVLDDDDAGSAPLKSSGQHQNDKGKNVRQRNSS
Chain of MCT1 (P53985 whole entry): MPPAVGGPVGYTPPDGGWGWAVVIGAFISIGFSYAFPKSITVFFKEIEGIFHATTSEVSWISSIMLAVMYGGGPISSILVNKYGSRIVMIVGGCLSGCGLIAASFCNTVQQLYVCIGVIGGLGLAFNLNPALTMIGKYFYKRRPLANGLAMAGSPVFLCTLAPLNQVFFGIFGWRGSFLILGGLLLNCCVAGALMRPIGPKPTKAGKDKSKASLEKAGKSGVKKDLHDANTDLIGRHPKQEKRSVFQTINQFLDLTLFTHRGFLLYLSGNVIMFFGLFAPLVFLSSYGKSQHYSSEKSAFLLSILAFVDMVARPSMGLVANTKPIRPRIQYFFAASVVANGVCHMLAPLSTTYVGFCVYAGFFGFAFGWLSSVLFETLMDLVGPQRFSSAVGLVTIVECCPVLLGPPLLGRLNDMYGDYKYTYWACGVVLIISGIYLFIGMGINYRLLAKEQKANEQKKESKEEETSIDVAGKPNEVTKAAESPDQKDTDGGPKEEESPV
Chain of MCT1 (P35613 140-385 partner): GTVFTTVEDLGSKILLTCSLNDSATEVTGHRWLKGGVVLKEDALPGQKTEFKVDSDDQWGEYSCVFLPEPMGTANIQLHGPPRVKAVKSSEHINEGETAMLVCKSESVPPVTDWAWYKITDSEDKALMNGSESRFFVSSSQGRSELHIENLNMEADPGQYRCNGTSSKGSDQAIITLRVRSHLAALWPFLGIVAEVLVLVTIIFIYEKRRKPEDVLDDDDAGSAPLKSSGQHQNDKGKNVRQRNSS

Structure (SMILES)	half-life at 2 µM [1] [h]	Human microsome % 60 min [1] [%]	half-life at 2 µM [2] [h]	Mouse microsome % 60 min [2] [%]	IC50 [3, 5] [nM]	IC50 [4] [nM]	IC50 [3] [nM]
CC(C)COc1cccc(-c2cc(COC(C)(C)C(=O)O)nn2Cc2ccccc2Cl)c1 [Example 27, 2-([1-[(2-Chlorophenyl)methyl]-5-(3-(2-methyl-propoxy)phenyl)1H-pyrazol-3-yl]methoxy)-2-methylpropanoic acid]	0.833	43	1.02	50			
CC(C)Oc1cccc(-c2cc(COC(C)(C)C(=O)O)nn2Cc2ccccc2Cl)c1 [Example 35, 2-([1-[(2-Chlorophenyl)methyl]-5-(3-isopropoxyphenyl)1H-pyrazol-3-yl]methoxy)-2-methylpropanoic acid]	1.92	67	0.583	31			
COc1cccc(-c2cc(COC(C)(C)C(=O)O)nn2Cc2ccccc2OC)c1 [Example 36, 2-([5-(3-Methoxyphenyl)-1-[(2-methoxyphenyl)methyl]1H-pyrazol-3-yl]methoxy)-2-methylpropanoic acid]	4.83	85	20	99			
COc1cccc(-c2cc(COC(C)(C)C(=O)O)nn2Cc2ccccc2N(C)C)c1 [Example 38, 2-([1-[(2-(Dimethylamino)phenyl]methyl]-5-(3-methoxyphenyl)1H-pyrazol-3-yl]methoxy)-2-methylpropanoic acid]	1.27	56	1.32	61			
CC(C)(OCc1cc(-c2cccc(OC3CC3)c2)n(Cc2ccccc2Cl)n1)C(=O)O [Example 39, 2-([1-[(2-Chlorophenyl)methyl]-5-[3-(cyclopropoxy)phenyl]1H-pyrazol-3-yl]methoxy)-2-methylpropanoic acid]	6.33	89	6.17	88			
COc1cccc(-c2c(C)c(COC(C)(C)C(=O)O)nn2Cc2ccccc2Cl)c1 [Example 54, 2-({1-[(2-Chlorophenyl)methyl]-5-(3-methoxyphenyl)-4-methyl-1H-pyrazol-3-yl)methoxy)-2-methylpropionic acid]	1.3	59	12.7	95			
COc1cccc(-c2cc(COC(C)(C)C(=O)O)nn2-c2ccccc2Cl)c1 [Example 57, 2-([1-(2-chlorophenyl)-5-(3-methoxy-phenyl)-1H-pyrazol-3-yl]methoxy)-2-methylpropanoic acid]	3.17	80	> 33.3	100			
COc1ccc(-c2cc(COC(C)(C)C(=O)O)nn2Cc2ccccc2Cl)s1 [Example 64]	3.33	82	4.5	84			
COc1csc(-c2cc(COC(C)(C)C(=O)O)nn2Cc2ccccc2Cl)c1 [Example 65, 2-([1-[(2-Chlorophenyl)methyl)-5-(4-methoxythien-2-yl)-1H-pyrazol-3-yl]methoxy)-2-methylpropanoic acid]	2.33	78	9.33	92			
COc1cc(-c2cc(COC(C)(C)C(=O)O)nn2Cc2ccccc2Cl)cs1 [Example 66, 2-([1-[(2-chlorophenyl)methyl]-5-(5-methoxythien-3-yl)-1H-pyrazol-3-yl]-methoxy)-2-methylpropanoic acid]	2	73	4.33	83			
CCC(C)(OCc1cc(-c2cccc(OC)c2)n(Cc2ccccc2Cl)n1)C(=O)O (centres unmarked) [Example 68, 2-([1-[(2-Chlorophenyl)methyl]-5-(3-methoxyphenyl)-1H-pyrazol-3-yl)methoxy)-2-methylbutanoic acid]	13.2	95	6.33	91			
CC(C)(OCc1cc(-c2cccc(OC3CCC3)c2)n(Cc2ccccc2N2CCCC2)n1)C(=O)O [Example 238, 2-([5-(3-Cyclobutoxyphenyl)-1-[[2-(pyrrolidin-1-yl)phenyl]methyl]-1H-pyrazol-3-yl]methoxy)-2-methylpropanoic acid]					3.7	21000	
CC(C)(OCc1cc(-c2cccc(OC3CC3)c2)n(-c2ccccc2C#N)n1)C(=O)O [Example 239, 2-([1-(2-Cyanophenyl)-5-(3-cyclopropoxy-phenyl)-1H-pyrazol-3-yl)methoxy)-2-methylpropanoic acid]						> 100000	150
COc1cc(OC)cc(-c2cc(COC(C)(C)C(=O)O)nn2-c2ccccc2N(C)C)c1 [Example 245, 2-([5-(3,5-Dimethoxyphenyl)-1-[2-(dimethylamino)phenyl)-1H-pyrazol-3-yl]-methoxy)-2-methylpropanoic acid]					7.6	77000	
CC(C)COc1cccc(-c2cc(COC(C)(C)C(=O)O)nn2Cc2ccccn2)c1 [Example 247, 2-Methyl-2-([5-[3-(2-methylpropoxy)-phenyl]-1-([pyridin-2-yl]methyl)-1H-pyrazol-3-yl]methoxy)propanoic acid]					23	> 100000	
COc1cc(OC)cc(-c2cc(COC(C)(C)C(=O)O)nn2-c2cccc3cnn(C)c23)c1 [Example 249, 2-([5-(3,5-Dimethoxyphenyl)-1-(1-methyl-1H-indazol-7-yl)-1H-pyrazol-3-yl]methoxy)-2-methylpropanoic acid]					39	> 100000	
CCOc1cccc(F)c1Cn1nc(COC(C)(C)C(=O)O)cc1-c1cc(OC)cc(OC)c1 [Example 252, 2-([5-(3,5-Dimethoxyphenyl)-1-[(2-ethoxy-6-fluorophenyl)methyl]-1H-pyrazol-3-yl]methoxy)-2-methylpropanoic acid]					25	43000	
CC(C)(C)COc1cccc(-c2cc(COC(C)(C)C(=O)O)nn2-c2cccc3cccnc23)c1 [Example 253, 2-([5-[3-(2,2-Dimethylpropoxy)phenyl]-1-(quinolin-8-yl)-1H-pyrazol-3-yl]methoxy)-2-methylpropanoic acid]					19	55000	
COc1cc(OC)cc(-c2cc(COC(C)(C)C(=O)O)nn2Cc2ccccn2)c1 [Example 254, 2-([5-(3,5-Dimethoxyphenyl)-1-([pyridin-2-yl]methyl)-1H-pyrazol-3-yl]methoxy)-2-methylpropanoic acid]					285	> 100000	
Cn1ncc2cccc(Cn3nc(COC(C)(C)C(=O)O)cc3-c3cccc(OCC(C)(C)C)c3)c21 [Example 256, 2-([5-[3-(2,2-Dimethylpropoxy)phenyl]-1-[(1-methyl-1H-indazol-7-yl)methyl]-1H-pyrazol-3-yl]methoxy)-2-methylpropanoic acid]					2.6	17000	
Cn1nnc2cccc(-n3nc(COC(C)(C)C(=O)O)cc3-c3cccc(OCC(C)(C)C)c3)c21 [Example 258, 2-([5-[3-(2,2-Dimethylpropoxy)phenyl]-1-(1-methyl-1H-1,2,3-benzotriazol-7-yl)-1H-pyrazol-3-yl)methoxy)-2-methylpropanoic acid]					12	27000	
CCn1ncc2ccc(-c3cc(COC(C)(C)C(=O)O)nn3Cc3ccccn3)cc21 [Example 259, 2-([5-(1-Ethyl-1H-indazol-6-yl)-1-([pyridin-2-yl]methyl)-1H-pyrazol-3-yl]methoxy)-2-methylpropanoic acid]					850	> 100000	
CCn1nnc2ccc(-c3cc(COC(C)(C)C(=O)O)nn3Cc3ccccc3Cl)cc21 [Example 261]					17	43000	
CC[C@@](C)(OCc1cc(-c2cccc(OC3CC3)c2)n(-c2ccccc2Cl)n1)C(=O)O [Example 262, (2R)-2-([1-(2-Chlorophenyl)-5-(3-cyclopropoxyphenyl)-1H-pyrazol-3-yl]methoxy)-2-methylbutanoic acid]					9.1	7900	
CC[C@@](C)(OCc1cc(-c2cccc(OCC(C)C)c2)n(-c2cccc3cnn(C)c23)n1)C(=O)O [Example 263, (2R)-2-Methyl-2-([1-(1-methyl-1H-indazol-7-yl)-5-[3-(2-methylpropoxy)phenyl]-1H-pyrazol-3-yl]methoxy]butanoic acid]					2.2	16000	
Cc1nn(C)c2sc(-c3cc(COC(C)(C)C(=O)O)nn3Cc3ccccc3Cl)cc12 [Example 265, 2-([1-[(2-Chlorophenyl)methyl]-5-[1,3-dimethyl-1H-thieno[2,3-c]pyrazol-5-yl]-1H-pyrazol-3-yl)methoxy)-2-methylpropanoic acid]					5.6	84000	
